These are literature values, as cited in article PMC13603578, “Biopriming with Schizophyllum commune Polysaccharides Modulates Antioxidant and Biochemical Responses in Pisum sativum L. Seedlings” (Antioxidants, 2026).

On the set-up of this series: method as in PMID 26205049. The note with it: under the tested conditions.

liquiritigenin: the DPPH radical-scavenging inhibition result was “exceeding 65%”.
